The test system of experiment [1] is Saccharomyces cerevisiae. The experiment is described as follows: Antifungal activity against Saccharomyces cerevisiae 1353. It is filed as functional.
In experiment [2] the test system is Saccharomyces cerevisiae. The experiment in a line: Antifungal activity against Saccharomyces cerevisiae 1138. It is filed as functional.
The subject of experiment [3] is Saccharomyces cerevisiae. The experiment in a line: Antifungal activity against Saccharomyces cerevisiae 1140. The class given is functional.
The subject of a further experiment is M109. The experiment in a line: Cytotoxicity against mouse M109 cells. It is filed as functional, cell-based.
Experiment [4] has as its system Saccharomyces cerevisiae. The experiment is described as follows: Antifungal activity against Saccharomyces cerevisiae Sc7. The class given is functional.
The test system of the next experiment is A2780. The experiment in a line: Cytotoxicity against human A2780 cells. It is filed as functional, cell-based.

The structures appear in SMILES notation. Converted amounts (≈) assume the structure as drawn.

The IC50 is the point on the concentration scale where inhibition reaches its midpoint. Higher therefore signals lower potency. `CC(=O)N[C@H]1[C@H](O[C@H]2CC[C@]3(C)[C@H]4CC=C5[C@@H]6CC(C)(C)CC[C@]6(C(=O)O)CC[C@@]5(C)[C@]4(C)CC[C@H]3C2(C)C)O[C@H](CO[C@@H]2OC[C@H](O)[C@H](O)[C@H]2O[C@@H]2OC[C@H](O)[C@H](O)[C@H]2O)[C@@H](O)[C@@H]1O`: the IC12 amounted to 30 µg/mL with Saccharomyces cerevisiae [1], 25 µg/mL with Saccharomyces cerevisiae [2], 40 µg/mL in the experiment on Saccharomyces cerevisiae [3] and 45 µg/mL with Saccharomyces cerevisiae [4]. Moreover, it took 1 µg/mL (≈ 1.08 µM) to reach half-maximal inhibition in the experiment on M109 (IC50).

The molecule `CC(=O)N[C@H]1[C@H](O[C@H]2CC[C@]3(C)[C@H]4CC=C5[C@@H]6CC(C)(C)[C@@H](OC(=O)/C=C/c7ccccc7)C[C@]6(C(=O)O)[C@H](O)C[C@@]5(C)[C@]4(C)CC[C@H]3C2(C)C)O[C@H](CO[C@@H]2OC[C@H](O)[C@H](O)[C@H]2O[C@@H]2OC[C@@H](O)[C@H](O)[C@H]2O)[C@@H](O)[C@@H]1O` [ACACIOSIDE B] returned an IC50 in the experiment with A2780 of 13.5 µg/mL (≈ 12.4 µM). Moreover, the IC12 stood at 220 µg/mL in the experiment on Saccharomyces cerevisiae [1], 150 µg/mL with Saccharomyces cerevisiae [2], 220 µg/mL with Saccharomyces cerevisiae [3] and 280 µg/mL in the experiment with Saccharomyces cerevisiae [4].

In the experiment on A2780, `CC(=O)N[C@H]1[C@H](O[C@H]2CC[C@]3(C)[C@H]4CC=C5[C@@H]6CC(C)(C)[C@@H](OC(=O)/C=C/c7ccccc7)C[C@]6(C(=O)O)[C@H](O)C[C@@]5(C)[C@]4(C)CC[C@H]3C2(C)C)O[C@H](CO[C@@H]2OC[C@H](O)[C@H](O)[C@H]2O[C@@H]2OC[C@H](O)[C@H](O)[C@H]2O)[C@@H](O)[C@@H]1O` [ACACIOSIDE C] displayed an IC50 of 13 µg/mL (≈ 12 µM). In addition, the IC12 stood at 220 µg/mL in the experiment on Saccharomyces cerevisiae [1], 160 µg/mL with Saccharomyces cerevisiae [2], 215 µg/mL in the experiment with Saccharomyces cerevisiae [3] and 275 µg/mL in the experiment with Saccharomyces cerevisiae [4].

As to `CC(=O)N[C@H]1[C@H](O[C@H]2CC[C@]3(C)[C@H]4CC=C5[C@@H]6CC(C)(C)CC[C@]6(C(=O)O)CC[C@@]5(C)[C@]4(C)CC[C@H]3C2(C)C)O[C@H](CO[C@@H]2OC[C@H](O)[C@H](O)[C@H]2O[C@@H]2OC[C@@H](O)[C@H](O)[C@H]2O)[C@@H](O)[C@@H]1O` [ALBIZIATRIOSIDE A], the IC12 was 35 µg/mL with Saccharomyces cerevisiae [1], 30 µg/mL in the experiment on Saccharomyces cerevisiae [2], 35 µg/mL with Saccharomyces cerevisiae [3] and 30 µg/mL with Saccharomyces cerevisiae [4]. This molecule gave an IC50 in the experiment with M109 of 1 µg/mL (≈ 1.08 µM).

The record behind these values is ChEMBL document CHEMBL1159316, “Bioactive saponins from Acacia tenuifolia from the suriname rainforest” (J Nat Prod, 2002).
